Experimental data as given in patent US20110123617A1, “CLIOQUINOL FOR THE TREATMENT OF HEMATOLOGICAL MALIGNANCIES” (priority 2007, published 2011).

Tested on: chymotrypsin-like activity of the proteasome
Assay: Proteasome activity in cell lysates (Suc-LLVY-AMC cleavage)
Format: biochemical
Conditions: cell lysates from leukemia and myeloma cell lines
Experimental: A) Proteasome activity of MDAY-D2 and JJN3 cellular extracts after two hours of treatment with clioquinol (CQ), CuCl2 (Cu), or an equimolar concentration of CQ and Cu. After treatment, the preferential chymotrypsin-like substrate Suc-LLVY-AMC was added and the rate of free AMC was measured over time with a florescent spectrophotometric plate reader (excitation=380 nm, emission=460 nm). B) Proteasome activity of intact MDAY-D2 and JJN3 cells after two hours of treatment with clioquinol (CQ), CuCl2 (Cu), or an equimolar concentration of CQ and Cu. After treatment, the preferential chymotrypsin-like substrate Suc-LLVY-AMC was added and the rate of free AMC was measured over time with a florescent spectrophotometric plate reader (excitation=380 nm, emission=460 nm). […] The chymotrypsin-like activity of the proteasome was measured by incubating equal amounts of protein with the preferential chymotrypsin-like substrate Suc-LLVY-AMC in assay buffer (50 mM Tris-HCl, pH 7.5, 150 mM NaCl) for two hours. After incubation, […] and the rate of free AMC was measured over time with a florescent spectrophotometric plate reader (excitation=380 nm, emission=460 nm). […] The chymotrypsin-like activity of the proteasome was measured by monitoring the rate of cleavage of the fluorescent substrate Suc-LLVY-AMC.

## Oc1c(I)cc(Cl)c2cccnc12 [clioquinol, 5-chloro-7-iodo-8-hydroxyquinoline]
  rate of Suc-LLVY-AMC cleavage: inhibited the rate of Suc-LLVY-AMC cleavage
